{"source": "patent US20050220825A1", "about": "“Molecular dispersions of drospirenone” (priority 2004, published 2005)", "origin": "cited, not measured here", "key": {"[1]": {"settings": "drospirenone in micronised form; background statement"}, "[2]": {"settings": "within 30 minutes, hydrochloric acid solution pH about 1.0"}}}
{"smiles": "C[C@]12CCC(=O)C=C1[C@@H]1C[C@@H]1[C@H]1[C@@H]3[C@@H]4C[C@@H]4[C@@]4(CCC(=O)O4)[C@@]3(C)CC[C@@H]12", "note": "[drospirenone]", "values": [{"measurement": "drospirenone dissolved at 30 minutes after start of dissolution testing", "setting": "[1]", "result": "at least 70%"}, {"measurement": "drospirenone degraded into its therapeutically inactive isomer", "setting": "[2]", "result": "~50", "unit": "%"}]}
